Assay results: US20130072506A1, “6,8-DISUBSTITUTED PURINE COMPOSITIONS” (priority 2011, published 2013)

What was measured:
[1] = test system: human skin fibroblast line ASF-2; test: Cell survival and toxicity (MTT assay); format: cell-based
Procedure: (§1) All cell culture experiments were performed on early and mid passage cultures (about 20 to 40% lifespan completed) of normal human skin fibroblast line, designated ASF-2. In order to check the effects of test compounds on senescent cells, late passage cells with more than 90% lifespan completed were used. ASF-2 cell line was established from a mammary skin biopsy obtained from a young, non-smoking and healthy […] at the time of breast reduction operation. Normal culture conditions of medium (DMEM) containing antibiotics, 10% foetal calf serum, and incubation at 37° C. with 95% humidity were used. The effects of the test compounds were determined using the following procedures.
Cell survival, toxicity, and JC-1 staining. Cell survival after exposure to various doses of the test compounds was measured with the 3-(4,5 dimethylthiazol-2-yl)-2,5-diphenyltetrazolium bromide (MTT) assay. About 5,000 cells were seeded per well in a 96-well plate 24 h before the experiment. Cells were then treated with various doses of the compound to be tested. The wells were washed in Hank's and new medium was added. After three days, MTT (Sigma, M2128) was added at 0.5 mg/ml in medium. After 4 h, MTT was collected and then dissolved in isopropanol and HCl over a 12-16 h period. The absorbance at 595 nm was measured.

[2] = test system: mitochondria of ASF-2 cells; test: JC-1 staining of mitochondria; format: cell-based, human; conditions: 3 days pre-treatment of dermal fibroblasts
Procedure: as §1
Briefly, stock solution of JC-1 (Sigma, M2128) was made at 1 mg/ml in dimethyl sulfoxide. Fresh staining solution […] was prepared by diluting the stock solution in warm (37° C.) culture medium supplemented with 10% calf serum (final conc. 1 μg/ml). Around 3000 cells/ml were seeded in 4 chambered flasks. After three days of incubation, medium is aspirated and one ml of JC-1 staining medium is added, after incubation for 10 mins a cover slip is quickly added and viewed under fluorescent microscope at excitation wavelengths of 488 and 647 nm. […] On depolarization, the orange red punctate staining is replaced by diffuse green monomer fluorescence.

[3] = test system: Salmonella typhimurium histidien auxotrophs TA98 and TA100; test: Ames test; format: cell-based; conditions: 2.5-5000 μg/plate, presence and absence of Aroclor-induced rat liver S9
Procedure: Ames Test. A number of tests related to the safety of these inventive compounds have been carried out using conventionally accepted protocols and procedures. Tests were carried out using DMSO as solvent and dose levels of 8-amino-6-furfurylaminopurine at 2.5, 5.0, 15, 50, 500, 1500, and 5000 μg/plate based upon standard protocol and procedures (Ames et al., Mutation Research, 31, 347-364 (1975); Maron et al., Mutation Research, 113, 173-215 (1983)).

SKH-1 hairless mice [4] = test: Hairless mouse assay: skin moisture content; format: in vivo
From the text: Evaluation of cutaneous effects of new topical compounds in the hirless mouse assay. The purpose of this study was to evaluate new topical compounds for their safety and efficacy as topical skin anti-aging treatments. The hairless mouse model is a well established model for studying the treatments of photoaging. […] The present study was used to investigate a new class of anti-aging compounds in comparison to classical ones. […] Topical compounds and vehicle controls were be applied daily (Monday-Friday) for 3 weeks to the dorsal skin of hairless mice. At baseline (prior to the 1st treatment), and weekly, the dorsal skin was measured for: transepidermal water loss (TEWL); skin moisture content; and skin elasticity.
(§2) Experimental Design. 48 female SKH-1 hairless mice (5 weeks old, 20-25 grams, Charles River Laboratories, Wilmington, Mass.) are individually housed in filter-top cages, and acclimated for 5-7 days after delivery. The mice are divided into 8 treatment groups (n=6), including two different control groups (untreated control, vehicle control) and a therapeutic control (tretinoin 0.05% Renova™ cream). Cage cards are marked to indicate treatment groups 1-8. Water and mouse chow are provided ad libitum.
Skin Moisture Content & Elasticity. The measurements of skin moisture content and skin elasticity are important noninvasive methods used to characterize the effects of moisturizers and anti-wrinkle effects on skin. A DermaLab™ combination instrument were used to measure the skin moisture content and elasticity of the target skin sites at baseline and at weekly intervals. This instrument is equipped with dual probes which are placed on the skin surface and a quantitative measurement taken of the respective parameters and the measurements recorded on an integrated computer. Mean measurements was determined for each treatment group over time, and comparative statistics used to evaluate product effectiveness.
(§3) Topical Treatments. Beginning on Treatment Day 1, test products are applied topically each morning (Monday through Friday) after erythema evaluations for 3 weeks. Using a positive displacement pipette, 20 mg of each agent is applied to a 2 cm×2 cm area of the center midline of the back. The material was spread across the treatment area with the pipette tip.

SKH-1 hairless mice [5] = test: Hairless mouse assay: epidermal bromodeoxyuridine (BrdU) staining; format: in vivo
From the text: This study determined the effect of topical compound formulations on epidermal cell proliferation using bromodeoxyuridine as an immunohistochemical marker of cell proliferation. Histological examination of the treated and control skin were used to determine cutaneous effects of the topical compounds. Topical tretinoin 0.05% (Renova™) was used as a therapeutic control.
as §2, §3
Bromodeoxyuridine Injection. All animal groups are injected with bromodeoxyuridine (100 mg/kg) I.P. 4 hours after the final application. Animals are sacrificed by CO2 inhalation 3 hours later followed by cervical dislocation. The test sites are excised, and 6 mm punch biopsies are obtained from each treatment site, and from untreated controls. Biopsies are placed into labeled vials containing 4% neutral buffered formalin for paraffin embedding and anti-BrdU staining.
Bromodeoxyuridine Immunohistochemical Staining. Paraffin sections are cut to a […] thickness and stained using the BrdU Immuno-histochemistry kit (X1545K from Exalpha Biologicals, Inc.) and a standard staining protocol. The slides are weakly counterstained in Mayer's hematoxylin and scored under a light microscope for the number of BrdU-positive cells per mm of epidermis for each section. The data are expressed as mean BrdU-positive cells/mm for each treatment group. Differences in BrdU labeling in the treatment groups are statistically analyzed using the Students t-test. Representative photographs are taken of the histological sections of the BrdU-positive staining cells.

SKH-1 hairless mice [6] = test: Hairless mouse assay: skin histology and skin compartment measurements; format: in vivo; conditions: H&E stained biopsies, after 3 weeks of treatment
From the text: as §2, §3
Skin Histology. Skin biopsies are taken of each treatment site and untreated control skin. Biopsies are fixed in 4% neutral buffered formalin, embedded in paraffin, and stained with hematoxylin and eosin. The stained skin sections are examined to determine the effects of the treatment on epidermal, dermal, and stratum corneum histology. Biopsies are also microscopically examined for inflammatory cells.
Skin Compartment Measurements. The H&E stained biopsy slides were imaged using a trinocular Olympus BH-2 microscope fitted with a Microfire 2.1×3 Digital Camera. 100× images were digitized and stored on CD using MS Pictureframe and Microfire Software. All compartment images were measured using a calibrated micrometer. An average of three measurements of each compartment for two slide images per biopsy was obtained and tabulated, and means and standard deviations were calculated.

SMILES: Nc1nc2c(NCc3ccco3)ncnc2[nH]1 [Compound 82, 6-furfurylamino-8-aminopurine]
- reduction in survival ([1]; 100 μM, MTT): 15%
- cell survival ([1]; 500 μM, MTT): reduction in cell survival
- toxic effects (MTT) ([1]; young fibroblasts, until a dose of 100 μM): little toxic effects
- JC-1 staining [2]: punctate orange-red fluorescent staining
- mutagenic responses [3]: no positive mutagenic responses
- mean moisture content (SKH-1 hairless mice [4]; at week 3): most effective
- average moisture content (SKH-1 hairless mice [4]; compared with the vehicle): higher than that of the vehicle
- epidermal BrdU staining (SKH-1 hairless mice [5]; after 3 weeks of topical treatment): more effective
- Mean Nuclei Stained (SKH-1 hairless mice [5]; epidermal BrdU staining after 3 weeks of topical treatment, 0.1% (tretinoin 0.05%)): 12.8 ± 13.3
- skin compartment thickness (SKH-1 hairless mice [6]): least effect on skin thickness
